Molecular target: GSK-3β (Homo sapiens, UniProt P49841)
Test: GSK-3 kinase scintillation proximity assay (SPA) with biotinylated glycogen synthase peptide
Assay type: biochemical
Details: 20 nM kinase, 2.5 uM ATP, 40 minutes at room temperature; pIC50 = -log IC50 in Molar; read-out: GSK-3 inhibition
Description: The phosphorylated biotinylated peptide is then captured onto streptavidin coated scintillation proximity assay (SPA) beads from Amersham Technology, where the signal from the ^33P is amplified via the scintillant contained in the beads.
GSK-3β, is commercially available or may be cloned and expressed in E coli using standard techniques to produce soluble, active protein. The production of active protein involves purification in two steps using Metal Chelate and Ion Exchange Chromatography. Protein eluting from Ion Exchange provides >90% pure product that may then be concentrated for use in high throughput screening.
The kinase was assayed at a concentration of 20 nM final in 100 mM HEPES, pH 7.2 containing 10 mM magnesium chloride, 0.1 mg/mL bovine serum albumin, 1 mM dithiothreitol, 0.3 mg/mL heparin, 2.8 uM peptide substrate, 2.5 uM ATP, and 0.2 uCi/well γ^33P]-ATP. After 40 minutes incubation at room temperature, the reaction was stopped by addition of 100 mM EDTA and […] in 100 mM HEPES, pH7.2 followed by an additional solution of diluted Streptavidin coated SPA beads in PBS, pH 7.2 to give a final concentration of 0.25 mg of beads per assay well in a 96-well microtiter plate.
10 mM stock solutions of the compounds of the invention in 100% DMSO are generated as a first step in the screening process. The second step involves the creation of dose response plates where these compounds are diluted 10-fold in 100% DMSO to 1 mM concentrations and subsequently serially diluted 3-fold in 100% DMSO across the plate by automated liquid handling such that the final top concentration of inhibitor is 0.033 mM in the 30 uL kinase assay. The third step involves the creation of the assay plates. This is achieved by transferring 1 uL of the compounds to assay plates by automated liquid handling. The fourth step is to perform the assay as described and count the resulting plates in the Packard TopCount NXT microplate scintillation and luminescence counter. The final step is data acquisition and analysis where IC50 values are generated for each compound by normalizing curve data to the equation 100*(U1−C2)/(C1−C2) (where U1 is the cpm value, C2 is the background, and C1 is the maximum number of counts), then fitting the normalized data to the equation y=Vmax*(1−(x/(K+x))). The IC50 values were converted to pIC50 values, i.e., -log IC50 in Molar concentration.

Sequence of GSK-3β (P49841 whole entry, species assumed): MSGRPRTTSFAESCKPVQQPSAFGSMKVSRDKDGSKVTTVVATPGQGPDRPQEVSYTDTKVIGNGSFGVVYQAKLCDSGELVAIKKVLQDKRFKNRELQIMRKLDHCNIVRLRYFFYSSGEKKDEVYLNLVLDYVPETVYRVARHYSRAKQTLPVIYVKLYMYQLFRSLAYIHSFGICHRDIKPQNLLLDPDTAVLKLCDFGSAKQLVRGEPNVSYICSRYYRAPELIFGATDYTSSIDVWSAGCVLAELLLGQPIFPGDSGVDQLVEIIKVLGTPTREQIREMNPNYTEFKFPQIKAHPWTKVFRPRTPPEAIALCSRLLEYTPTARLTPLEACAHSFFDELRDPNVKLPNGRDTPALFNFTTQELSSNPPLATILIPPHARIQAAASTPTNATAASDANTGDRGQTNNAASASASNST

Row | IC50 [nM] | SMILES
1 | 10 to 100 | COc1ccc(-c2cc3c(NC(=O)C4CCCC4)ncnc3o2)cc1 [Example 3, Cyclopentanecarboxylic acid [6-(4-methoxy-phenyl)-furo[2,3-d]pyrimidin-4-yl]-amide]
2 | 100 to 1000 | COc1ccc(-c2cc3c(NC(=O)CCSC)ncnc3o2)cc1 [Example 4, N-[6-(4-Methoxy-phenyl)-furo[2,3-d]pyrimidin-4-yl]-3-methylsulfanyl-propionamide]
3 | > 1000 | COc1ccc(-c2cc3c(NC(=O)C4CCCCC4)ncnc3o2)cc1 [Example 6, Cyclohexanecarboxylic acid [6-(4-methoxy-phenyl)-furo[2,3-d]pyrimidin-4-yl]-amide]
4 | < 10 | O=C(Nc1ncnc2oc(-c3cccnc3)cc12)C1CCCC1 [Example 20, Cyclopentanecarboxylic acid (6-pyridin-3-yl-furo[2,3-d]pyrimidin-4-yl)-amide]

Source: patent US20070088031A1, “Novel chemical compounds” (priority 2003, published 2007)
